Data as given in patent US8048874B2, “Beta-lactamyl phenylalanine, cysteine, and serine vasopressin antagonists” (Azevan Pharmaceuticals, Inc., priority 2005, dated 2011).

Assays:
human V1a receptors = molecular target: T1, human V1a receptors (Homo sapiens, UniProt P37288); assay: Human vasopressin V1a cell-based receptor binding assay (3H-AVP competition)
T1 construct: expressed in transfected cells; host or cells: CHO cells
Experimental: Human or rat vasopression V1a, V1b, and/or V2 cell-based receptor binding assay. The V1a, V1b, and/or V2 cell lines (cells expressing either the human or rat V1a, V1b, and/or V2 receptors) were grown in alpha-MEM medium supplemented with 10% fetal bovine serum and 250 ug/ml G418 (Gibco, Grand Island, N.Y.) in 75 cm^2 flask. For competitive binding assay, hV1b cells were dissociated with enzyme-free, PBS based cell dissociation solution (Specialty Media, Phillipursburg, N.J.), following the manufacturer's protocol. Cells were plated into 12-well culture plates at a rate of one flask to 18 plates (rate should be adjusted according to the extent of confluency), and maintained in culture for 2-3 days. Culture medium was then removed, cells were washed once with 2 ml binding buffer (25 mM Hepes, 0.25% BSA, 1×DMEM, PH=7.0) at room temperature. To each well, 990 ul binding buffer containing 1 nM ^3H-AVP was added, and followed by the addition of 10 ul series diluted testing compounds or cold AVP, all dissolved in DMSO. […] Cells were incubated for 30 min at 37° C. in a moisturized incubator. Assay mixture was then removed and each well was washed three times with PBS (pH=7.4). […] Samples were counted in a liquid scintillation counter (Beckman LS3801). IC50 and Ki values were calculated using Prism Curve fitting software. […]

human V1b receptors = molecular target: T2, human V1b receptors (Homo sapiens, UniProt P47901); assay: Human vasopressin V1b cell-based receptor binding assay (3H-AVP competition); conditions: cells expressing human V1b receptor, 1 nM 3H-AVP
T2 construct: expressed in transfected cells
T2 sequence (P47901 1-424): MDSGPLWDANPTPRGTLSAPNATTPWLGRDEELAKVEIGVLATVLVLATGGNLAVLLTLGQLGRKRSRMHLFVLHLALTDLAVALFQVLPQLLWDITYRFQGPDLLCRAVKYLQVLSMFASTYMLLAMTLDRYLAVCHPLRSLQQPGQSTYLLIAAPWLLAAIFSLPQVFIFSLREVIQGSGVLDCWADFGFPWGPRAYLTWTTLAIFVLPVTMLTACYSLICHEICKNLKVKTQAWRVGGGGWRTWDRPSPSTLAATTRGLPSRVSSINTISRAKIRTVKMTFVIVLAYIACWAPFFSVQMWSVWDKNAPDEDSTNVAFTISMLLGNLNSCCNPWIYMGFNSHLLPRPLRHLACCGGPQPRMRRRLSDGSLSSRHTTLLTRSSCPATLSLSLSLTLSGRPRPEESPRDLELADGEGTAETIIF
Source text: Human vasopression VIb receptor-expressing cells. Human vasopressin receptor 1B (HV1B) cDNA (see, Lolait et al., “Extrapituitary expression of the rat V1b vasopressin receptor gene” Proc. Natl. Acad. Sci. USA. 92:6783-7 (1995); de Keyzer et al., “Cloning and characterization of the human V3(V1b) pituitary vasopressin receptor” FEBS Lett. 356:215-20 (1994); Sugimoto et al., “Molecular cloning and functional expression of a cDNA encoding the human V1b vasopressin receptor” J. Biol. Chem. 269:27088-92 (1994)) was inserted into a mammalian cell expression vector PCI-neo (Promega) at EcoR1 site. The recombinant plasmid carrying HV1B cDNA was identified from transformed E. Coli clones and used for the transfection of Chinese hamster ovary cell (CHO-K1, ATCC). Two micrograms of HV1B receptor DNA was introduced into 10^5 CHO cells cultured in 6-well plate, using Fugene-6 mediated transfection technique (Boehringer Mannheim). Twenty-four hrs post transfection, Cells were then cultured under selection of G-418 (0.25 mg/ml) supplemented to the culture medium. Three days later, limited dilution was carried out to obtain single cell clones in 96-well plates. […]
Human or rat vasopression V1a, V1b, and/or V2 cell-based receptor binding assay. […] Samples were counted in a liquid scintillation counter (Beckman LS3801). IC50 and Ki values were calculated using Prism Curve fitting software. […]

T1 sequence (P37288 whole entry): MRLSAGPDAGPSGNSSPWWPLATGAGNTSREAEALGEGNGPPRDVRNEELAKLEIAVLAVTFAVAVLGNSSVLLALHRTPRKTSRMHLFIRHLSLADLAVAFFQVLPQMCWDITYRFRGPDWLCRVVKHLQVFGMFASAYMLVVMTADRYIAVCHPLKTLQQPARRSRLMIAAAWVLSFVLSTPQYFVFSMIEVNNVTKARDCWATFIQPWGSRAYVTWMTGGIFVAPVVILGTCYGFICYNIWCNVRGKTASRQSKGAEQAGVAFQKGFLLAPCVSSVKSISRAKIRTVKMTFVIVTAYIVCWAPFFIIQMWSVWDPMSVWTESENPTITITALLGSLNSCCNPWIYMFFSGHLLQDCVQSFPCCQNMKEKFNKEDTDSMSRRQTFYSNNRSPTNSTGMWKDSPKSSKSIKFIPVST

- Ki (human V1a receptors; FIG. 1, competitive binding assay in CHO cells transfected with human V1a receptor, read-out: human V1b binding affinity (Ki)): 0.07 nM
- IC50 (human V1a receptors; cells expressing human V1a receptor, 1 nM 3H-AVP, read-out: Human V1a Binding Affinity (IC50 (nM))): 0.11 nM
- IC50 (human V1b receptors; read-out: Human V1b Binding Affinity (IC50 (μM))): 1.1 µM
- Ki (human V1b receptors; read-out: Human V1b Binding Affinity (Ki (μM))): 0.69 µM
Compound: O=C(C(CSCc1ccccc1)N1C(=O)C(N2C(=O)OCC2c2ccccc2)C1C=Cc1ccccc1)N1CCC(CCN2CCCCC2)CC1 [Example 9B, (2S)-(Benzylthiomethyl)-2-[3(S)-(4(S)-phenyloxazolidin-2-on-3-yl)-4(R)-(2-styryl)azetidin-2-on-1-yl]acetic acid N-[4-[2-(piperid-1-yl)ethyl]piperidin-1-yl]amide]
